This is an account of results in ChEMBL document CHEMBL1201862, “PubChem BioAssay data set” (2004).

Calls of active or inactive are those of the source.

Test [1] has as its target T1, Heat shock factor protein 1 (Mus musculus, UniProt P38532).
T1 sequence (P38532 whole entry): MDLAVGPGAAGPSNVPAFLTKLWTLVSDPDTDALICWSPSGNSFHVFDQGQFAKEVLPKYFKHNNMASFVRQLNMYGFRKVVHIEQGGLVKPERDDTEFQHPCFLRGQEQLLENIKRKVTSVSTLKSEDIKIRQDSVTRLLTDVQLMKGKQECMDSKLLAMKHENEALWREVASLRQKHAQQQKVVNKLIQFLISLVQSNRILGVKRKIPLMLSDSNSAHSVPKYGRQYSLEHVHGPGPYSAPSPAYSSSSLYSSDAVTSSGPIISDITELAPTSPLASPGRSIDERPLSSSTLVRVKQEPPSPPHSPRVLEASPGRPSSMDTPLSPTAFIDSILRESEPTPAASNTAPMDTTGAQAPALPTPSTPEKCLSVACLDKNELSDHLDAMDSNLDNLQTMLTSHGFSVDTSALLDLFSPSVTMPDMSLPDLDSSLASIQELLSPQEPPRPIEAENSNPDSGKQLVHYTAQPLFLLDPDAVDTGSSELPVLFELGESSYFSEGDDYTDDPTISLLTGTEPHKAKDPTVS
The test can be described thus: inhibition of MG132-induced HSE-luciferase signal, confirmation, cell-based, NIH3T3, luminescence, dose retest (AID 2382).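 Further: NIH3T3 fibroblasts with HSF1-driven luciferase reporter stressed by proteasome inhibitor MG132; luminescence from HSF1-driven luciferase expression after 8 hours of MG132 stress.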 It counts as functional.

The target of test [2] is T2, COUP transcription factor 2 (Homo sapiens, UniProt P24468).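 Further: HEK293 cells transiently cotransfected with COUP-TFII expression vector and reporter; luciferase reporter luminescence driven by COUP-TFII from the pX2-168 reporter plasmid.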
T2 sequence (P24468 whole entry): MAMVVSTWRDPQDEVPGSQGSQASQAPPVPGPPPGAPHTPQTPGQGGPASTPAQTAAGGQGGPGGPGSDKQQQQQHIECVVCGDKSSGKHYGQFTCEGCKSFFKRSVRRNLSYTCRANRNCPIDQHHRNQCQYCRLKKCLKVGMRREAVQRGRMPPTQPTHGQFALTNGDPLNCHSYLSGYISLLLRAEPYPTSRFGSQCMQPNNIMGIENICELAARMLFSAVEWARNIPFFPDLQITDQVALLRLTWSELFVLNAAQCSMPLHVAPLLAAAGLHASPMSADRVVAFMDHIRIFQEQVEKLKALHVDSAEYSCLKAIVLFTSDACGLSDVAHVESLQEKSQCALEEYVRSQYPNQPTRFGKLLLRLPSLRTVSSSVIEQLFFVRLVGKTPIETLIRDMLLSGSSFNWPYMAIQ
Nature of the test: Luminescence-based cell-based high throughput dose response assay to identify inhibitors of COUP-TFII (NR2F2). The test is classed as functional.

Test [3] in a line: miR-122 activators in hepatoma reporter cells, dose response, cell-based, Huh7 psiCHECK-miR122, Renilla luciferase, cherry-picked (AID 651956).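 Further: huh7 hepatoma cells stably carrying a psiCHECK-2 miR-122 sensor plasmid; renilla luciferase signal reporting endogenous miR-122 activity after 48 h compound exposure.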 It counts as functional.
Test [4] is described as follows: IGROV1 ovarian cancer cell cytotoxicity, dose response, PAX8 inhibitor project, plate reader, dry powder samples (AID 743043). The test is classed as functional, cell-based. The settings on record: IGROV-1.
Test [5] in a line: non-specific cell cytotoxicity, dose response, cytotoxicity control for PAX8 inhibitor project, plate reader, dry powder samples (AID 743021). The test is classed as functional, cell-based.
Test [6] in a line: HEK293T cytotoxicity, dose response, cytotoxicity control for miR-122 modulator project, cell-based, activator set, cherry-pick (AID 720690).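 Further: HEK293T human cells scored for general mammalian cytotoxicity.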 It counts as functional.
Test [7] is described as follows: NIH:OVCAR-3 ovarian cancer cell cytotoxicity, dose response, PAX8 inhibitor project, plate reader, dry powder samples (AID 743044). It counts as functional, cell-based.
In test [8] the target is Paired box protein Pax-8 (Homo sapiens, UniProt Q06710). The test can be described thus: inhibitors of PAX8-driven TPO luciferase reporter, dose response, RMG-I cells, cherry-pick (AID 687027).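 Further: luciferase reporter driven by Pax8 target thyroperoxidase promoter measured by SteadyGlo luminescence.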 The test is classed as functional, cell-based. On the technique in general: In a reporter assay the amount or activity of a reporter protein is the signal.
Paired box protein Pax-8, sequence (Q06710 whole entry): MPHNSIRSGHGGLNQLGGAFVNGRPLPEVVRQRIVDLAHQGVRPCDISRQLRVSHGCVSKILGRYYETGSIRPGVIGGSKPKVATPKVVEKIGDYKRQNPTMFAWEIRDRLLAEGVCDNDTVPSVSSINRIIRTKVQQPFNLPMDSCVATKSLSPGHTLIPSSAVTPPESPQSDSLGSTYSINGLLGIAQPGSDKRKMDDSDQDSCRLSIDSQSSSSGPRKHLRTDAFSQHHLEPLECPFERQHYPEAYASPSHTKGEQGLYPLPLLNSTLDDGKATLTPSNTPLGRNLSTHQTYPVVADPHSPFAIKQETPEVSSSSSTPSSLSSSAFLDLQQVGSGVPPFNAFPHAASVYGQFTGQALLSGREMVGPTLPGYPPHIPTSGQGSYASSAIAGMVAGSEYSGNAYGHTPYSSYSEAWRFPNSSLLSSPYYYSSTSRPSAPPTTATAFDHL
Test [9] deals with T3, 1-phosphatidylinositol 4,5-bisphosphate phosphodiesterase beta-3 (Homo sapiens, UniProt Q01970).
T3 sequence (Q01970 whole entry): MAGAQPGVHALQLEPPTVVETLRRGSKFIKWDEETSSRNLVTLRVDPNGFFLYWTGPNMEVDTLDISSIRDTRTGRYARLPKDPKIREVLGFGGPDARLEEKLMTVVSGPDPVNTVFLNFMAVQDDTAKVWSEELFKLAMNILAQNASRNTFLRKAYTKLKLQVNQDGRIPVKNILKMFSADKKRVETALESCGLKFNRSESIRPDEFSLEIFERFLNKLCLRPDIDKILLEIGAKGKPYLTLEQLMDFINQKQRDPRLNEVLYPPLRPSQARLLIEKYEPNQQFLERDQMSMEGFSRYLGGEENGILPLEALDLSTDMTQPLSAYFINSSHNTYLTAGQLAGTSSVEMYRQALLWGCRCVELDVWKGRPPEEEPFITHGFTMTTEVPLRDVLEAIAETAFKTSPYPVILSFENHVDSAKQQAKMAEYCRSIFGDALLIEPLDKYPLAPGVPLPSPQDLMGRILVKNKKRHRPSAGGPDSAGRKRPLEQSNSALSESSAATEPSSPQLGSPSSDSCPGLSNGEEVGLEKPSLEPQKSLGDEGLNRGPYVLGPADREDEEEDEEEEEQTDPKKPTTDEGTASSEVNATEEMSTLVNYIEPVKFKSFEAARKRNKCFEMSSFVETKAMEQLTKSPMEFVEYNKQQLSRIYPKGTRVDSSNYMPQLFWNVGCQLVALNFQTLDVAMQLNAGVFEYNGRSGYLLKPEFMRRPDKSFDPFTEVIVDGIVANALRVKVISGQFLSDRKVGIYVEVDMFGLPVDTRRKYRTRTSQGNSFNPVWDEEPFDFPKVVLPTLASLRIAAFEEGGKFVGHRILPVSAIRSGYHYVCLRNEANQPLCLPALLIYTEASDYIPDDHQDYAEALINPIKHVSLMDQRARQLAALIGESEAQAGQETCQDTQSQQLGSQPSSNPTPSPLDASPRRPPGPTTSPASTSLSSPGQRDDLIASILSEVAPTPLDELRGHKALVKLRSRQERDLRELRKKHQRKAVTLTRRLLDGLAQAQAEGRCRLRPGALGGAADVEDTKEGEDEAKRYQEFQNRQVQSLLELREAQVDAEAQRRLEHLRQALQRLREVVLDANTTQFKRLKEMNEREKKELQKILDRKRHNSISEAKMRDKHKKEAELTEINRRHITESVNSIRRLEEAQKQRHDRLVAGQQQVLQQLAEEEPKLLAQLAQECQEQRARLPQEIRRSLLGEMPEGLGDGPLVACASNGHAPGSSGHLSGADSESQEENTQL
Nature of the test: Fluorescence-based biochemical high throughput dose response assay to identify inhibitors of phospholipase C isozymes (PLC-B3).

The target of test [10] is T4, 1-phosphatidylinositol 4,5-bisphosphate phosphodiesterase gamma-1 (Homo sapiens, UniProt P19174).
T4 sequence (P19174 whole entry): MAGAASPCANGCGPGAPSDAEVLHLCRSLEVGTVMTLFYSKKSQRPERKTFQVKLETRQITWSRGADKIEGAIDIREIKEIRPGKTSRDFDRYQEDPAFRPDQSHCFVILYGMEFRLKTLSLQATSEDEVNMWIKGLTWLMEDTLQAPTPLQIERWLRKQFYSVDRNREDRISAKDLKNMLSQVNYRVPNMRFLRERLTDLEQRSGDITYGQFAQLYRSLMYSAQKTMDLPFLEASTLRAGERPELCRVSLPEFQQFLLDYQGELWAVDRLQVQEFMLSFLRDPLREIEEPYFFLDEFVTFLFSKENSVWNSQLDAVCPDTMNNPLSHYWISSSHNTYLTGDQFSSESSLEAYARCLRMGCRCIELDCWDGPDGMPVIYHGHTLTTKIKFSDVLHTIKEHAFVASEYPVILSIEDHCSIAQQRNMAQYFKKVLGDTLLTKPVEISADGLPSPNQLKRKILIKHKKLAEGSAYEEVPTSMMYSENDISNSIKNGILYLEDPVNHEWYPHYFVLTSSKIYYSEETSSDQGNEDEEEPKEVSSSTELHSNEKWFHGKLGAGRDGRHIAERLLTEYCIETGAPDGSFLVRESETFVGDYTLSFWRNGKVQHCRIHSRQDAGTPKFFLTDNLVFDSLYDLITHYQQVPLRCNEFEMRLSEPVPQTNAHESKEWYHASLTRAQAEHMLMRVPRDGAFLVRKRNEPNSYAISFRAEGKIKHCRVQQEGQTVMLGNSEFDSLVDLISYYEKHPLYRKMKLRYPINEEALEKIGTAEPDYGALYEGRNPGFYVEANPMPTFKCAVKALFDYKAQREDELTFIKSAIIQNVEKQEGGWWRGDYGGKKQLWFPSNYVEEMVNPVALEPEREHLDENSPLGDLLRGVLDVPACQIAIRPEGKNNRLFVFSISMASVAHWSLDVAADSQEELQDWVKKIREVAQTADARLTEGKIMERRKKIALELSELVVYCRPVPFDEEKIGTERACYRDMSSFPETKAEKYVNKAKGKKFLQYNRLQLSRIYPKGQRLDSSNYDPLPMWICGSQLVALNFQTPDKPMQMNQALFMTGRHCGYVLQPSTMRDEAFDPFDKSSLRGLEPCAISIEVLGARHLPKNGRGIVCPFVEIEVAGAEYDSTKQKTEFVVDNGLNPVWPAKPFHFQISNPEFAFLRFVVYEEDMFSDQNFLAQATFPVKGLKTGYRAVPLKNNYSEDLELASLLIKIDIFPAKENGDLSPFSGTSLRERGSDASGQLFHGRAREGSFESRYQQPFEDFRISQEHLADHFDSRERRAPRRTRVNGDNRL
The test can be described thus: Counterscreen for inhibitors of phospholipase C isozymes (PLC-B3): Fluorescence-based biochemical high throughput dose response assay to identify inhibitors of phospholipase C isozymes (PLC-gamma1). For orientation: Counterscreens check selectivity or assay interference.

Test [11] addresses T5, Oxysterols receptor LXR-beta (Homo sapiens, UniProt P55055).
T5 sequence (P55055 whole entry): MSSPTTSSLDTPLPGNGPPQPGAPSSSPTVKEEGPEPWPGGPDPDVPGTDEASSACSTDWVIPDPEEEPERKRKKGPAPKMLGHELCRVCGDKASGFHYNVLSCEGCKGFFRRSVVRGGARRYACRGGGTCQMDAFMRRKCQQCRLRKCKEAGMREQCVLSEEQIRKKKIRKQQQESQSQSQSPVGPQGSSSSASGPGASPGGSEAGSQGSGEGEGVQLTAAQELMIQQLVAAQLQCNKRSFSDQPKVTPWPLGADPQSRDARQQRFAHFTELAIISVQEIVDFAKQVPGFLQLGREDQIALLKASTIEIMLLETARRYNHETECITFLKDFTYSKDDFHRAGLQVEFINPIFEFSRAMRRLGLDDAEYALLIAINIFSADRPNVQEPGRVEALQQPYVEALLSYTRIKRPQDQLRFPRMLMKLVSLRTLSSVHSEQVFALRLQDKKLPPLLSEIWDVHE
It counts as functional, cell-based.

The target in test [12] is T6, Cytochrome P450 1A2 (Homo sapiens, UniProt P05177).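 Further: PubChem cytochrome P450 panel assay, CYP1A2 panel member.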
T6 sequence (P05177 whole entry): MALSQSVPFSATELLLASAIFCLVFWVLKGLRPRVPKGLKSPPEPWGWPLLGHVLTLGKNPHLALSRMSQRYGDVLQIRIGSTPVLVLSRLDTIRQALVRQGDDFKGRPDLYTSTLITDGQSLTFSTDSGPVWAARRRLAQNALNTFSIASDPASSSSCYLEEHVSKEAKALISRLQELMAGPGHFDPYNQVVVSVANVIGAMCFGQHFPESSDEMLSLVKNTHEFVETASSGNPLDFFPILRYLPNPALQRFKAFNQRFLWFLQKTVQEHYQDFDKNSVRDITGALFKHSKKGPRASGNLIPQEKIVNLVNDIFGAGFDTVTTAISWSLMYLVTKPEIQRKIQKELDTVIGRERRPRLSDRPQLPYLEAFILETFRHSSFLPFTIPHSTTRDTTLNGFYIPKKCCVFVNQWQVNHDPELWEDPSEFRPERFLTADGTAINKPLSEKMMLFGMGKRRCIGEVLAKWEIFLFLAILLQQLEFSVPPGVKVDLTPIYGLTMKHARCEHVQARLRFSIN

Test [13] addresses T5, Oxysterols receptor LXR-beta. It counts as functional, cell-based. The source holds these as a separate data set.
Test [14] in a line: cells.

The term EC50 denotes the midpoint of the concentration-response curve. By IC50 is commonly meant the concentration at which inhibition is half-maximal. In general, AC50 refers to the concentration at which the activity in the assay is half-maximal.

As for `O=C1NC(=O)C(=NNc2ccc3c(c2)OCCO3)C(=O)N1`, in test [1], the concentration for a half-maximal effect (EC50) is < 0.16 µM (active). Further, the half-maximal inhibitory concentration (IC50) in test [2] was 6.75 µM (active).

Consider `Cc1ccccc1-c1ccc([C@@H]2[C@H](CO)N3CCCCN(C(=O)Nc4cccc(F)c4)C[C@@H]23)cc1`, for which the AC50 in test [3] is 9.43 µM (active); in test [4] it was 35.5 µM (active); in test [5] it was 3.19 µM (active); in test [6], 13.7 µM (active); in test [7], 20.4 µM (active); in [8], 19.6 µM (active).

Consider `CCNC(=O)Nc1ccc2c(c1)C(=O)N(C)[C@H]1CC[C@H](CC(=O)N[C@H](C)c3ccccc3)O[C@@H]1CO2`, for which the IC50 in [9] is 61.9 µM (inactive); in test [10] it was 68.8 µM (inactive).

With `Cc1nnc(SCC(=O)Nc2nsc(-c3ccc(C(C)(C)C)cc3)n2)s1`, the EC50 in test [11] was > 67.5 µM (inactive).

As for `CC(C)Oc1ccc(C(=O)Nc2ccc(NC(=O)c3ccco3)c(Cl)c2)cc1`, the IC50 in test [9] and in test [10] was > 122 µM (inactive) throughout. The AC50 in test [12] was 22.4 µM (inconclusive).

Take `O=c1c(=NNc2ccccc2Cl)c(=O)c2ccccc12`: the EC50 in [13] and in test [14] was > 67.5 µM (inactive) throughout.
